Counter-ions that a name gives are not always drawn.
These molecules were tested against T1, human CGT (ceramide galactosyltransferase), CHO/CGT lysate (Homo sapiens, UniProt Q16880) (assay: CGT enzyme assay, RapidFire/MS/MS readout (Table 1 ranges with one asterisk *)). Conditions: RapidFire method (range with one asterisk *).
T1 construct: Full-length human CGT cDNA was cloned into the BamH1/Xho1 site of pcDNA3.1 (+); expressed in transfected cells; host or cells: Chinese hamster ovary (CHO) cells; lysate prepared with M-PER
T1 sequence (Q16880 21-541): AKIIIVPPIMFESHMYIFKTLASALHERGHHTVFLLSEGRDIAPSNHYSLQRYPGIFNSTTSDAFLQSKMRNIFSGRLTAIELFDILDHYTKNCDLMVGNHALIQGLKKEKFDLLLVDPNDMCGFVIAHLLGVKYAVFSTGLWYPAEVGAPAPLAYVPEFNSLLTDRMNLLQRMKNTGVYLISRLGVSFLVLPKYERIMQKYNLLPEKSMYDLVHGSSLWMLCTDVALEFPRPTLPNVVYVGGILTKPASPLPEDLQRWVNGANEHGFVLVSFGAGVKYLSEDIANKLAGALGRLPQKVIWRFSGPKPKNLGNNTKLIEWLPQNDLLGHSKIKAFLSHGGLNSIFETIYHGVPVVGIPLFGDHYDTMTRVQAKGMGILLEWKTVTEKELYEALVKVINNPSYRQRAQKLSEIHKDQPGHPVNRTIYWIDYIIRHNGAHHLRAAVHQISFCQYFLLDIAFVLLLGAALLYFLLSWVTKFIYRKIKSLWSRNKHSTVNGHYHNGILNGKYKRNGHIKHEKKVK
Format: biochemical
Method in brief: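 Lysate (4 μg) of CHO cells transfected with full-length human CGT incubated 1 h at 37 °C with compound (0.001–50 μM) in pH 7.2 HEPES buffer with 10 μM C6-NBD-dihydro-ceramide, 17.5 μM UDP-galactose, Mg2+/Mn2+, CHAPS, BSA, 0.5% DMSO; ** set also contained 0.01% Tween 80. Product quantified by RapidFire/MS/MS, normalized to internal standard; IC50 from sigmoidal variable-slope fits.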

Q: With `CC(C)N([C@H](C(=O)N1C2CCC1CC(N)C2)C(F)(F)c1ccc(Br)cc1)S(=O)(=O)c1ccc2cc(OC3CCCC3)ccc2c1` (stereo partly drawn) [Compound 76-1, N-((2R)-3-(3-amino-8-azabicyclo[3.2.1]octan-8-yl)-1-(4-bromophenyl)-1,1-difluoro-3-oxopropan-2-yl)-6-(cyclopentyloxy)-N-isopropylnaphthalene-2-sulfonamide] as the molecule, how does the IC50 read?
A: Its IC50 is 10 to 30 µM.

Q: How did the IC50 turn out when `CC(C)N([C@@H](C(=O)N1C2CCC1CC(N)C2)C(F)(F)c1ccc(Br)cc1)S(=O)(=O)c1ccc2cc(OC3CCCC3)ccc2c1` (stereo partly drawn) [Compound 76-2, N-((2S)-3-(3-amino-8-azabicyclo[3.2.1]octan-8-yl)-1-(4-bromophenyl)-1,1-difluoro-3-oxopropan-2-yl)-6-(cyclopentyloxy)-N-isopropylnaphthalene-2-sulfonamide] was run?
A: Its IC50 is 30 to 100 µM.

Q: For `NC1CC2CCC(C1)N2C(=O)[C@@H](NS(=O)(=O)c1ccc2nn(CC3CCCC3)cc2c1)C(F)(F)c1ccc(Br)cc1` (stereo partly drawn) [Compound 77-1, N-((2R)-3-(3-amino-8-azabicyclo[3.2.1]octan-8-yl)-1-(4-bromophenyl)-1,1-difluoro-3-oxopropan-2-yl)-2-(cyclopentylmethyl)-2H-indazole-5-sulfonamide], which IC50 is on record?
A: The IC50 was 1 to 10 µM.

Q: With `NC1CC2CCC(C1)N2C(=O)[C@H](NS(=O)(=O)c1ccc2nn(CC3CCCC3)cc2c1)C(F)(F)c1ccc(Br)cc1` (stereo partly drawn) [Compound 77-2, N-((2S)-3-(3-amino-8-azabicyclo[3.2.1]octan-8-yl)-1-(4-bromophenyl)-1,1-difluoro-3-oxopropan-2-yl)-2-(cyclopentylmethyl)-2H-indazole-5-sulfonamide] as the molecule, how does the IC50 read?
A: The IC50 was 30 to 100 µM.

Q: For `CN([C@H](C(=O)N1C2CCC1CC(N)C2)C(F)(F)c1ccc(Br)cc1)S(=O)(=O)c1ccc2nn(CC3CCCC3)cc2c1` (stereo partly drawn) [Compound 78-1, N-((2R)-3-(3-amino-8-azabicyclo[3.2.1]octan-8-yl)-1-(4-bromophenyl)-1,1-difluoro-3-oxopropan-2-yl)-2-(cyclopentylmethyl)-N-methyl-2H-indazole-5-sulfonamide], which IC50 is on record?
A: The IC50 was 1 to 10 µM.

Q: `CN([C@@H](C(=O)N1C2CCC1CC(N)C2)C(F)(F)c1ccc(Br)cc1)S(=O)(=O)c1ccc2nn(CC3CCCC3)cc2c1` (stereo partly drawn) [Compound 78-2, N-((2S)-3-(3-amino-8-azabicyclo[3.2.1]octan-8-yl)-1-(4-bromophenyl)-1,1-difluoro-3-oxopropan-2-yl)-2-(cyclopentylmethyl)-N-methyl-2H-indazole-5-sulfonamide] was tested. Which IC50 did it give?
A: The IC50 was 30 to 100 µM.

Q: How did the IC50 turn out when `CCCCOc1ccc(C(F)(F)[C@@H](C(=O)N2C3CCC2CC(N)C3)N(C)S(=O)(=O)c2ccc(OCC3CCCCC3)cc2)cc1` (stereo partly drawn) [Compound 79-1, N-((2R)-3-(3-amino-8-azabicyclo[3.2.1]octan-8-yl)-1-(4-butoxyphenyl)-1,1-difluoro-3-oxopropan-2-yl)-4-(cyclohexylmethoxy)-N-methylbenzenesulfonamide] was run?
A: Its IC50 is 1 to 10 µM.

Q: Which IC50 does the source give for `CCCCOc1ccc(C(F)(F)[C@H](C(=O)N2C3CCC2CC(N)C3)N(C)S(=O)(=O)c2ccc(OCC3CCCCC3)cc2)cc1` (stereo partly drawn) [Compound 79-2, N-((2S)-3-(3-amino-8-azabicyclo[3.2.1]octan-8-yl)-1-(4-butoxyphenyl)-1,1-difluoro-3-oxopropan-2-yl)-4-(cyclohexylmethoxy)-N-methylbenzenesulfonamide] here?
A: Its IC50 is 1 to 10 µM.

Q: For `CCCCOc1ccc(C(F)(F)[C@H](NS(=O)(=O)c2ccc3cc(OC4CCCC4)ccc3c2)C(=O)N2CCC(N)CC2)cc1` [Compound 80-1, (R)—N-(3-(4-aminopiperidin-1-yl)-1-(4-butoxyphenyl)-1,1-difluoro-3-oxopropan-2-yl)-6-(cyclopentyloxy)naphthalene-2-sulfonamide], which IC50 is on record?
A: Its IC50 is less than 1 µM.

Q: Which IC50 does the source give for `CCCCOc1ccc(C(F)(F)[C@@H](NS(=O)(=O)c2ccc3cc(OC4CCCC4)ccc3c2)C(=O)N2CCC(N)CC2)cc1` [Compound 80-2, (S)—N-(3-(4-aminopiperidin-1-yl)-1-(4-butoxyphenyl)-1,1-difluoro-3-oxopropan-2-yl)-6-(cyclopentyloxy)naphthalene-2-sulfonamide] here?
A: Its IC50 is 1 to 10 µM.

Q: Which IC50 does the source give for `CCCCOc1ccc(C(F)(F)[C@H](NS(=O)(=O)c2ccc(OCC3CCCCC3)cc2)C(=O)N2CCC(N)CC2)cc1` [Compound 81-1, (R)—N-(3-(4-aminopiperidin-1-yl)-1-(4-butoxyphenyl)-1,1-difluoro-3-oxopropan-2-yl)-4-(cyclohexylmethoxy)benzenesulfonamide trifluoroacetate] here?
A: Its IC50 is 1 to 10 µM.

Q: With `CCCCOc1ccc(C(F)(F)[C@@H](NS(=O)(=O)c2ccc(OCC3CCCCC3)cc2)C(=O)N2CCC(N)CC2)cc1` [Compound 81-2, (S)—N-(3-(4-aminopiperidin-1-yl)-1-(4-butoxyphenyl)-1,1-difluoro-3-oxopropan-2-yl)-4-(cyclohexylmethoxy)benzenesulfonamide trifluoroacetate] as the molecule, how does the IC50 read?
A: The IC50 was 30 to 100 µM.

Q: How did the IC50 turn out when `CCCCOc1ccc(C(F)(F)[C@H](NS(=O)(=O)c2ccc3cc(OC4CCCC4)ccc3c2)C(=O)N2C3CCC2CC(N)C3)cc1` (stereo partly drawn) [Compound 82-1, N-((2R)-3-(3-amino-8-azabicyclo[3.2.1]octan-8-yl)-1-(4-butoxyphenyl)-1,1-difluoro-3-oxopropan-2-yl)-6-(cyclopentyloxy)naphthalene-2-sulfonamide trifluoroacetate] was run?
A: Its IC50 is less than 1 µM.

Q: `CCCCOc1ccc(C(F)(F)[C@@H](NS(=O)(=O)c2ccc3cc(OC4CCCC4)ccc3c2)C(=O)N2C3CCC2CC(N)C3)cc1` (stereo partly drawn) [Compound 82-2, N-((2S)-3-(3-amino-8-azabicyclo[3.2.1]octan-8-yl)-1-(4-butoxyphenyl)-1,1-difluoro-3-oxopropan-2-yl)-6-(cyclopentyloxy)naphthalene-2-sulfonamide trifluoroacetate] was tested. Which IC50 did it give?
A: Its IC50 is 1 to 10 µM.

Q: For `CCCCOc1cccc(C(F)(F)[C@H](NS(=O)(=O)c2ccc3cc(OC4CCCC4)ccc3c2)C(=O)N2CCC(N)CC2)c1` [Compound 83-1, (R)—N-(3-(4-aminopiperidin-1-yl)-1-(3-butoxyphenyl)-1,1-difluoro-3-oxopropan-2-yl)-6-(cyclopentyloxy)naphthalene-2-sulfonamide trifluoroacetate], which IC50 is on record?
A: Its IC50 is less than 1 µM.

Q: With `CCCCOc1cccc(C(F)(F)[C@@H](NS(=O)(=O)c2ccc3cc(OC4CCCC4)ccc3c2)C(=O)N2CCC(N)CC2)c1` [Compound 83-2, (S)—N-(3-(4-aminopiperidin-1-yl)-1-(3-butoxyphenyl)-1,1-difluoro-3-oxopropan-2-yl)-6-(cyclopentyloxy)naphthalene-2-sulfonamide trifluoroacetate] as the molecule, how does the IC50 read?
A: The IC50 was 1 to 10 µM.

Q: Which IC50 does the source give for `NC1CC2CCC(C1)N2C(=O)[C@@H](NS(=O)(=O)c1ccc(OCC2CCCCC2)cc1)C(F)(F)c1ccc(Oc2ccccc2)cc1` (stereo partly drawn) [Compound 84-1, N-((2R)-3-(3-amino-8-azabicyclo[3.2.1]octan-8-yl)-1,1-difluoro-3-oxo-1-(4-phenoxyphenyl)propan-2-yl)-4-(cyclohexylmethoxy)benzenesulfonamide] here?
A: Its IC50 is 1 to 10 µM.

Q: How did the IC50 turn out when `NC1CC2CCC(C1)N2C(=O)[C@H](NS(=O)(=O)c1ccc(OCC2CCCCC2)cc1)C(F)(F)c1ccc(Oc2ccccc2)cc1` (stereo partly drawn) [Compound 84-2, N-((2S)-3-(3-amino-8-azabicyclo[3.2.1]octan-8-yl)-1,1-difluoro-3-oxo-1-(4-phenoxyphenyl)propan-2-yl)-4-(cyclohexylmethoxy) benzenesulfonamide] was run?
A: Its IC50 is 10 to 30 µM.
